This test deals with mouse TRPM3α2 (mTRPM3) ion channel (Mus musculus (Mouse), UniProt J9SQF3). As to the kind of experiment: TRPM3 ion channel driven Ca2+ uptake, Fluo-4 AM assay, mTRPM3alpha2 overexpressing flip-in HEK293 cells stimulated with pregnenolone sulfate. Type of test: cell-based. A digest of the protocol:
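Read-out is Ca2+ influx via Fluo-4 AM fluorescence at 485/535 nm, taken right after seeding ~2000 cells/well onto compound with 50 μM PS. Inhibition computed from RFU between vehicle-stimulated and positive-control-inhibitor wells; cells were mTRPM3α2-overexpressing flip-in HEK293.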

The mark [1] stands for this setting: PS (50 μM) stimulated, cpds. 500-599.
The mark [2] stands for this setting: PS (50 μM) stimulated, cpds. 667-751.
Where [3] appears, read: PS (50 μM) stimulated, cpd 001-199.
Where [4] appears, read: PS (50 μM) stimulated, cpds. 608-666.
[5] abbreviates: PS (50 μM) stimulated, cpds. 400-499.

mouse TRPM3α2 (mTRPM3) ion channel, sequence (J9SQF3 other isoform, or with tags, fused parts or gaps): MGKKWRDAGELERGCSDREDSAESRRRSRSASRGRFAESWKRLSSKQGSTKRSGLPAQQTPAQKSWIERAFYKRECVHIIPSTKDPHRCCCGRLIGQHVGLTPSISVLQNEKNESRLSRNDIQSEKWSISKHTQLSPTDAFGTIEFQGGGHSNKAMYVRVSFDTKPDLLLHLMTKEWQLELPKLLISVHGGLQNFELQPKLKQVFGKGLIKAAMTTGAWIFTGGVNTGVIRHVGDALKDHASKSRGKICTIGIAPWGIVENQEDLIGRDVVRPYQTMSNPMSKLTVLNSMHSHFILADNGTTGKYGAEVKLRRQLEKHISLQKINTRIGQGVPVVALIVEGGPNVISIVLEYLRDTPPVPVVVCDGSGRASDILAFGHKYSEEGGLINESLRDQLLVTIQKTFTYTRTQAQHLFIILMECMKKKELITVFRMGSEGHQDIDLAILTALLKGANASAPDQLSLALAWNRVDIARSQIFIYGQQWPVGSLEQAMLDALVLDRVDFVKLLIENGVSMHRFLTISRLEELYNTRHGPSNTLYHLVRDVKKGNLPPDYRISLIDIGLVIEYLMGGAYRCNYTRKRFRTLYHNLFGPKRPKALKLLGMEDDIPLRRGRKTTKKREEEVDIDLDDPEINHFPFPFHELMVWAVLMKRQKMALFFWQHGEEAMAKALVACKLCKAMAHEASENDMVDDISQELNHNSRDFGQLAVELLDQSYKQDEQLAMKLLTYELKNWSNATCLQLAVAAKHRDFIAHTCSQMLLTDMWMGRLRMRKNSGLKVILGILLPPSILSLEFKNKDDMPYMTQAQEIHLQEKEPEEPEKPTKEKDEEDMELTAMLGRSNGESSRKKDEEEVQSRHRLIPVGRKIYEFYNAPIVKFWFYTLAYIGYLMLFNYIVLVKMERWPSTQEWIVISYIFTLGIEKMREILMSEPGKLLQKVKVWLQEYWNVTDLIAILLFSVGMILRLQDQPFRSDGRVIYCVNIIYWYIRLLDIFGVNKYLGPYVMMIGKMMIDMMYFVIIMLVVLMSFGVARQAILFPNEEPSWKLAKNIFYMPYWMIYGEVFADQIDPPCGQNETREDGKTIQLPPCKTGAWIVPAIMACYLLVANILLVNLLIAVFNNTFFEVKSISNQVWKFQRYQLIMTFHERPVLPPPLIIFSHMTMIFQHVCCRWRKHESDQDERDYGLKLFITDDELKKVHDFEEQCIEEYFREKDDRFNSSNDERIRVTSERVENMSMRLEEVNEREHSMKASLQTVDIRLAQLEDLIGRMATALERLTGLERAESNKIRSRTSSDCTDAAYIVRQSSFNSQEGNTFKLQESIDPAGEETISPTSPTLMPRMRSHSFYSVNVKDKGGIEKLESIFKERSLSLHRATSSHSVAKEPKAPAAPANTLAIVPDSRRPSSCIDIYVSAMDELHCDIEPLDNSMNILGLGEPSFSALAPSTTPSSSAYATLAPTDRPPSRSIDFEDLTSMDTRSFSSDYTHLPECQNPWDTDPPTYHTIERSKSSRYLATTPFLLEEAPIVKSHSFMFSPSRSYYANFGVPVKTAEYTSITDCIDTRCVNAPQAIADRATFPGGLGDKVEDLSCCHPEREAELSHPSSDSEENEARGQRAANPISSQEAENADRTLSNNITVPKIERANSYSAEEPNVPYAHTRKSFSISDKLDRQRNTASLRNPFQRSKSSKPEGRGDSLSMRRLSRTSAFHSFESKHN

A word on the IC50: it is the point on the concentration scale where inhibition reaches its midpoint. A low value points to greater potency. In turn, `COc1ncccc1COc1ccc2oc(C)c(C(=O)NC3CCNCC3(F)F)c2c1` (single isomer, unassigned) [cpd 565-En 1] registered an IC50 under setting [1] of less than 1 µM.
As for `Cc1ncsc1COc1ccc2oc(C)c(C(=O)N[C@@H](C)C(N)=O)c2c1` [compound 279, (S)-N-(1-amino-1-oxopropan-2-yl)-2-methyl-5-((4-methylthiazol-5-yl)methoxy)benzofuran-3-carboxamide], where the note is “PS 50 μM, cpds 200-299”, the IC50 is less than 1 µM.
Same read-out and setting: as for `Cc1oc2ccc(OCC3COC3)cc2c1C(=O)N[C@@H](CO)C(N)=O` [compound 292, (S)-N-(1-amino-3-hydroxy-1-oxopropan-2-yl)-2-methyl-5-(oxetan-3-ylmethoxy)benzofuran-3-carboxamide], the figure is less than 1 µM.
Under “PS 50 μM, cpds 300-399”, `O=C(NC1CCNCC1(F)F)c1c(C2CC2)oc2ccc(OCc3cccnc3C(F)(F)F)cc12` (single isomer, unassigned) [cpd 313-En 2] showed an IC50 of 1 to 20 µM.
Under setting [2], `Cc1oc2ccc(OCc3c(Cl)cnn3C(C)C)cc2c1C(=O)N[C@@H](CO)C(N)=O` [compound 672, (S)-N-(1-amino-3-hydroxy-1-oxopropan-2-yl)-5-((4-chloro-1-isopropyl-1H-pyrazol-5-yl)methoxy)-2-methylbenzofuran-3-carboxamide] registered an IC50 of less than 1 µM.
For the compound `Cc1oc2ccc(OCC3CCNC3)cc2c1C(=O)O` (stereo not drawn) [compound 003, 2-methyl-5-(pyrrolidin-3-ylmethoxy)benzofuran-3-carboxylic acid], the IC50 under setting [3] was greater than 20 µM.
With `Cc1nccc(COc2ccc3oc(C)c(C(=O)NC4CCNCC4(F)F)c3c2)n1` (single isomer, unassigned) [cpd 548-En 2], the IC50 under setting [1] is greater than 20 µM.
`Cc1oc2cc(F)c(OCc3cccnc3O)cc2c1C(=O)NC1(CO)CCOCC1` [compound 363, 6-fluoro-N-(4-(hydroxymethyl)tetrahydro-2H-pyran-4-yl)-2-methyl-5-((2-oxo-1,2-dihydropyridin-3-yl)methoxy)benzofuran-3-carboxamide] came in with an IC50 (PS 50 μM, cpds 300-399) of less than 1 µM.
`Cc1oc2ccc(OCc3ncccc3F)cc2c1C(=O)NC1(CO)CCOCC1` [compound 352, 5-((3-fluoropyridin-2-yl)methoxy)-N-(4-(hydroxymethyl)tetrahydro-2H-pyran-4-yl)-2-methylbenzofuran-3-carboxamide]: the IC50 (PS 50 μM, cpds 300-399) is less than 1 µM.
In the case of `Cc1ncsc1COc1cc2c(C(=O)NC3(CO)CCOCC3)c(C)oc2cc1Cl` [compound 174, 6-chloro-N-(4-(hydroxymethyl)tetrahydro-2H-pyran-4-yl)-2-methyl-5-((4-methylthiazol-5-yl) -methoxy)benzofuran-3-carboxamide], under setting [3], the IC50 is less than 1 µM.
Consider `Cc1oc2ccc(OCc3ncccn3)cc2c1C(=O)NC1CCNCC1(F)F` (single isomer, unassigned) [cpd 559-En 2], for which the IC50 under setting [1] is greater than 20 µM.
The compound `Cc1oc2ccc(OCc3ccncn3)cc2c1C(=O)N[C@@H](CO)C(N)=O` [compound 294, (S)-N-(1-amino-3-hydroxy-1-oxopropan-2-yl)-2-methyl-5-(pyrimidin-4-ylmethoxy)benzofuran-3-carboxamide] returned an IC50 (PS 50 μM, cpds 200-299) of less than 1 µM.
`Cc1oc2ccc(OCc3cccnc3N(C)C)cc2c1C(=O)NC1(CO)CCOCC1` [compound 344, 5-((2-(dimethylamino)pyridin-3-yl)methoxy)-N-(4-(hydroxymethyl)tetrahydro-2H-pyran-4-yl)-2-methylbenzofuran-3-carboxamide] registered an IC50 (PS 50 μM, cpds 300-399) of less than 1 µM.
On the same count and under the same terms, the result for `Cc1oc2ccc(OCc3ccc(OCCO)cn3)cc2c1C(=O)NC1(CO)CCOCC1` [compound 358, 5-((5-(2-hydroxyethoxy)pyridin-2-yl)methoxy)-N-(4-(hydroxymethyl)tetrahydro-2H-pyran-4-yl) -2-methylbenzofuran-3-carboxamide] reads greater than 20 µM.
Take `Cc1oc2ccc(OCc3ccnn3C)cc2c1C(=O)NC1(CO)CCOCC1` [compound 608, N-(4-(hydroxymethyl)tetrahydro-2H-pyran-4-yl)-2-methyl-5-((1-methyl-1H-pyrazol-5-yl)methoxy)benzofuran-3-carboxamide]: the IC50 under setting [4] was less than 1 µM.
As to `Cc1oc2ccc(OCc3nccn3C)cc2c1C(=O)NC1CNCCC1(F)F` (single isomer, unassigned) [cpd 635-En 2], the IC50 under setting [4] fell in the range of 1 to 20 µM.
In turn, `Cc1ncsc1COc1ccc2oc(C)c(C(=O)Nc3ccnn3C)c2c1` [compound 171, 2-methyl-N-(1-methyl-1H-pyrazol-5-yl)-5-((4-methylthiazol-5-yl)methoxy)benzofuran-3-carboxamide] had an IC50 under setting [3] of less than 1 µM.
For the compound `Cc1oc2ccc(OCc3cccnc3C(F)(F)F)c(C)c2c1C(=O)NC1CCNCC1(F)F` (single isomer, unassigned) [cpd 538-En 1], the IC50 under setting [1] lay within 1 to 20 µM.
`Cc1ncsc1COc1ccc2oc(C)c(C(=O)NC3(CCO)COC3)c2c1` [compound 128, N-(3-(2-hydroxyethyl)oxetan-3-yl)-2-methyl-5-((4-methylthiazol-5-yl)methoxy)benzofuran-3-carboxamide] yielded an IC50 under setting [3] of less than 1 µM.
`Cc1oc2ccc(OCc3ccnn3CC3CC3)cc2c1C(=O)N[C@@H](CO)C(N)=O` [compound 690, (S)-N-(1-amino-3-hydroxy-1-oxopropan-2-yl)-5-((1-(cyclopropylmethyl)-1H-pyrazol-5-yl)methoxy)-2-methylbenzofuran-3-carboxamide] yielded an IC50 under setting [2] of less than 1 µM.
Regarding `Cc1ncc(COc2ccc3oc(C)c(C(=O)NC4(CO)CCNC4)c3c2)s1` (single isomer, unassigned) [530-En 2, N-(3-(hydroxymethyl)pyrrolidin-3-yl)-2-methyl-5-((2-methylthiazol-5-yl)methoxy)benzofuran-3-carboxamide], under setting [1], the IC50 was less than 1 µM.
Consider `Cc1oc2ccc(OCc3ccccn3)cc2c1C(=O)NC1(CO)CCC1` [compound 415, N-(1-(hydroxymethyl)cyclobutyl)-2-methyl-5-(pyridin-2-ylmethoxy)benzofuran-3-carboxamide], for which the IC50 under setting [5] is less than 1 µM.
The compound `Cc1ncsc1COc1ccc2oc(C)c(C(=O)Nc3cc[nH]n3)c2c1` [compound 144, 2-methyl-5-((4-methylthiazol-5-yl)methoxy)-N-(1H-pyrazol-3-yl)benzofuran-3-carboxamide] gave a 50% inhibitory concentration (IC50) under setting [3] of less than 1 µM.
Take `COc1ncccc1COc1ccc2oc(C)c(C(=O)N[C@@H](CO)C(N)=O)c2c1` [compound 715, (S)-N-(1-amino-3-hydroxy-1-oxopropan-2-yl)-5-((2-methoxypyridin-3-yl)methoxy)-2-methylbenzofuran-3-carboxamide]: the IC50 under setting [2] is less than 1 µM.
Take `Cc1ncsc1COc1ccc2oc(C)c(C(=O)NC3(CO)CCCOC3)c2c1` (single isomer, unassigned) [cpd 532-En 1]: the IC50 under setting [1] was less than 1 µM.
Compound `Cc1nc(COc2ccc3oc(C)c(C(=O)N[C@@H](CO)C(N)=O)c3c2)cs1` [compound 285, (S)-N-(1-amino-3-hydroxy-1-oxopropan-2-yl)-2-methyl-5-((2-methylthiazol-4-yl)methoxy)benzofuran-3-carboxamide] had an IC50 (PS 50 μM, cpds 200-299) of less than 1 µM.
`Cc1oc2ccc(OCc3nccn3C)cc2c1C(=O)NC(C)(C)CO` [compound 481, N-(1-hydroxy-2-methylpropan-2-yl)-2-methyl-5-((1-methyl-1H-imidazol-2-yl)methoxy)benzofuran-3-carboxamide] registered an IC50 under setting [5] of less than 1 µM.
Regarding `Cc1ncc(COc2ccc3oc(C)c(C(=O)NC4(CO)COC4)c3c2)s1` [compound 525, N-(3-(hydroxymethyl)oxetan-3-yl)-2-methyl-5-((2-methylthiazol-5-yl)methoxy)benzofuran-3-carboxamide], under setting [1], the IC50 is less than 1 µM.
For `Cc1ncc(COc2ccc3oc(C)c(C(=O)NC(C)(C)CO)c3c2)s1` [compound 483, N-(1-hydroxy-2-methylpropan-2-yl)-2-methyl-5-((2-methylthiazol-5-yl)methoxy)benzofuran-3-carboxamide], under setting [5], the IC50 was less than 1 µM.
For the compound `Cc1ncsc1COc1ccc2oc(C)c(C(=O)NC3(CCO)CCC3)c2c1` [compound 114, N-(1-(2-hydroxyethyl)cyclobutyl)-2-methyl-5-((4-methylthiazol-5-yl)methoxy)benzofuran-3-carboxamide], under setting [3], the IC50 was less than 1 µM.
Consider `Cc1nc(C)c(COc2ccc3oc(C)c(C(=O)N[C@@H](CO)C(N)=O)c3c2)o1` [compound 678, (S)-N-(1-Amino-3-hydroxy-1-oxopropan-2-yl)-5-((2. 4-dimethyloxazol-5-yl)methoxy)-2-methylbenzofuran-3-carboxamide], for which the IC50 under setting [2] was less than 1 µM.
Consider `Cc1oc2ccc(OCc3ncccc3C3CC3)cc2c1C(=O)N[C@@H](CO)C(N)=O` [compound 704, (S)-N-(1-Amino-3-hydroxy-1-oxopropan-2-yl)-5-((3-cyclopropylpyridin-2-yl)methoxy)-2-methylbenzofuran-3-carboxamide], for which, under setting [2], the IC50 was less than 1 µM.
Regarding `Cc1ncc(COc2ccc3oc(C)c(C(=O)NC4(C(N)=O)CC4)c3c2)s1` [compound 476, N-(1-carbamoylcyclopropyl)-2-methyl-5-((2-methylthiazol-5-yl)methoxy)benzofuran-3-carboxamide], under setting [5], the IC50 was less than 1 µM.
For `Cc1ncsc1COc1ccc2oc(C)c(C(=O)NC(CO)C(N)=O)c2c1` (stereo not drawn) [compound 454, N-(1-amino-3-hydroxy-1-oxopropan-2-yl)-2-methyl-5-((4-methylthiazol-5-yl)methoxy)benzofuran-3-carboxamide], under setting [5], the IC50 was less than 1 µM.
`Cc1ncsc1COc1ccc2oc(C)c(C(=O)NCC(C)(C)F)c2c1` [compound 505, N-(2-fluoro-2-methylpropyl)-2-methyl-5-((4-methylthiazol-5-yl)methoxy)benzofuran-3-carboxamide]: the IC50 under setting [1] is less than 1 µM.
For `Cc1oc2ccc(OCc3nccn3C)cc2c1C(=O)NC1CCNCC1(F)F` (single isomer, unassigned) [cpd 205-En 2], the concentration for half-maximal inhibition (IC50) (PS 50 μM, cpds 200-299) is less than 1 µM.

The values are drawn from patent US12209081B2 (Katholieke Universiteit Leuven, priority 2020, dated 2025).
